In US4550186A, “Binuclear copper (II) carboxylates formed from amine-carboxyboranes” (Duke University, priority 1983, dated 1985):
Where two headings read alike, the source gives them in different places.

What was measured:
[1] = Appetite / food intake; conditions: in vivo
[2] = target: T1, orotidine monophosphate decarboxylase (Mus musculus, UniProt P13439); experiment: In vivo orotidine monophosphate decarboxylase activity
T1 construct: OMP decarboxylase domain of UMP synthase
Method: (§1) CF1 male mice (~30 g) were implanted with 2×10^6 Ehrlich ascites tumor cells, intraperitoneally on Day 0. Compound I was suspended by homogenation in 0.05% polysorbate.80-water and administered intraperitoneally at 10 and 20 mg/kg for 9 days to determine its effectiveness for inhibition of tumor growth. Mice were sacrificed on Day 10, and the ascites fluid was collected from the peritoneal cavity. The volume and ascrit (packed cell volume) were determined for each animal and the percent inhibition of tumor growth was calculated. For the metabolic studies, mice were treated on Days 8 and 9 with 10 mg/kg of Compound I, intraperitoneally. […]
(§2) Carbamyl phosphate synthetase activity was determined using the reaction medium of Kalman et al [Am. […] Citrulline formed from ornithine was measured at 490 nm by the method of Archibald [J. Biol. Chem., 156, 121 (1944)]. […] The ^14 CO2 generated in 15 min was trapped in 1M KOH and counted. Thymidylate synthetase activity was determined using a post-mitochondrial supernatant (9000 g×10 min) and 5 μCi of 5-^3 H-deoxyuridine monophosphate (14 Ci/mmol) according to the method of Kampf et al [ J. Med. Chem., 19, 903 (1976)]. ^14 C-Formate incorporation into purines was determined by the method of Spassova et al [Biochem. Pharmacol., 25, 923 (1976)] using 0.5 μCi of ^14 C-formic acid (52.0 mCi/mmol). […] The Rf value for xanthine monophosphate was scraped and counted. […]

[3] = system: deoxyribonuclease; experiment: In vitro deoxyribonuclease activity; type: biochemical, mouse; conditions: read-out: ID50, Deoxyribonuclease activity
Method: CF1 male mice (~30 g) were implanted with 2×10^6 Ehrlich ascites tumor cells, intraperitoneally on Day 0. Compound I was suspended by homogenation in 0.05% polysorbate.80-water and administered intraperitoneally at 10 and 20 mg/kg for 9 days to determine its effectiveness for inhibition of tumor growth. Mice were sacrificed on Day 10, and the ascites fluid was collected from the peritoneal cavity. The volume and ascrit (packed cell volume) were determined for each animal and the percent inhibition of tumor growth was calculated. For the metabolic studies, mice were treated on Days 8 and 9 with 10 mg/kg of Compound I, intraperitoneally. The animal was sacrificed on Day 10 and the ascites fluid harvested. The in vitro metabolic studies were performed at […] final concentration of Compound I.

[4] = target: T2, dihydrofolate reductase (Mus musculus, UniProt P00375); experiment: In vitro dihydrofolate reductase activity; type: biochemical; conditions: 0.25 to 1.0 mM
T2 sequence (P00375 1-187): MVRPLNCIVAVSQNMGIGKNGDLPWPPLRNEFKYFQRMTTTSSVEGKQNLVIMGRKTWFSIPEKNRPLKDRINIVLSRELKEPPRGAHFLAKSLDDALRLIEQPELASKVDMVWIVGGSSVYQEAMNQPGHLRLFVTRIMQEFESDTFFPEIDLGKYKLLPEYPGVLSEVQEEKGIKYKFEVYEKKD
Method: as §1, §2

T1 sequence (P13439 whole entry, the tested form may be a part): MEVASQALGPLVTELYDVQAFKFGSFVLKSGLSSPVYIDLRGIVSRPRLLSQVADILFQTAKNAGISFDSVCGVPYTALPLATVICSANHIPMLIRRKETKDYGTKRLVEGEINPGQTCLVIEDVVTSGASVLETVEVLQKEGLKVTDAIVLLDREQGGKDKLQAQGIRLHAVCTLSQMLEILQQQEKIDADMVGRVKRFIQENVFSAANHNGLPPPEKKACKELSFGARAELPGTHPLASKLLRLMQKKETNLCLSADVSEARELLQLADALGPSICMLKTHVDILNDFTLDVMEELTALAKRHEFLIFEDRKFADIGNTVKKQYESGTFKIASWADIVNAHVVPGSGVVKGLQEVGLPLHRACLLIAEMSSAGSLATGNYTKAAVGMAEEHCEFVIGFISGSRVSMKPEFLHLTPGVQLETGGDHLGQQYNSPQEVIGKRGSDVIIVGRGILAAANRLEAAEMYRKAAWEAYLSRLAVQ

## {Cu[(CH3)3 N.BH2 CO2 ]2.(CH3)3 N.BH2 COOH} [Compound I]
[1]
  Appetite of the animal: reduced
[2]
  Orotidine monophosphate decarboxylase activity: not affected
[2]; 10 mg/kg/day I.P. on Days 8 and 9
  Orotidine monophosphate decarboxylase activity: 106 ± 9 % Control
[3]
  IC50: 682 µM
[4]
  dihydrofolate reductase inhibition: not inhibited
